Columns and labels:
in vivo = settings: male, Sprague-Dawley, rat, po, 85.25 mg/kg
Protocol: (§1) The pharmacokinetics of the prodrug (4) were examined in rats. Three groups of four male Sprague-Dawley rats (approx 200 g) with jugular cannulae each received one of the following treatments: A) a single bolus intravenous injection of gabapentin (25 mg/kg, as a solution in water); B) a single oral dose of gabapentin (25 mg/kg, as a solution in water) administered by oral gavage; C) a single oral dose of (4) (85.25 mg/kg, as a solution in water) administered by oral gavage. Animals were fasted overnight prior to dosing and until 4 hours post-dosing. Serial blood samples were obtained over 24 hours following dosing and blood was processed for plasma by centrifugation. Plasma samples were stored at −80° C. until analyzed. Concentrations of (4) or gabapentin in plasma samples were determined by LC/MS/MS as described in Example 35. Plasma (50 μL) was precipitated by addition of […] of methanol and supernatent was injected directly onto the LC/MS/MS system. The method was linear for gabapentin over the concentration range 0.001 to 20 ng/mL and for (4) over the concentration range 0.01 to 10 ng/mL.
as §1, with “prodrug Cholyl-Phe-Gabapentin (7g)” for “prodrug (4)”, “of (7g) (103.5” for “of (4) (85.25”, “of (7g)” for “of (4)”, “or (2)” for “or gabapentin”, “described above.” for “described in Example 35.”, “system.” for “system. The method was linear for gabapentin over the concentration range 0.001 to 20 ng/mL and for (4) over the concentration range 0.01 to 10 ng/mL.”

IBAT = IBAT (Homo sapiens, UniProt Q12908); test: Electrogenic transport in Xenopus oocytes expressing IBAT; format: cell-based
From the text: RNA preparation: Human IBAT and LBAT Transporter cDNAs were subcloned into a modified pGEM plasmid that contains 5′ and 3′ untranslated sequences from the Xenopus β-actin gene. These sequences increase RNA stability and protein expression. Plasmid cDNA was linearized and used as template for in vitro transcription (Epicentre Technologies transcription kit, 4:1 methylated:non-methylated GTP).
Xenopus oocyte isolation. Xenopus laevis frogs were anesthetized by immersion in Tricaine ([…] in deionized water) for 15 min. Oocytes were removed and digested in frog ringer solution (90 mM NaCl, 2 mM KCl, 1 mM MgCl2, 10 mM NaHEPES, pH 7.45, no CaCl2) with 1 mg/mL collagenase (Worthington Type 3) for 80-100 min with shaking. The oocytes were washed 6 times, and the buffer changed to frog ringer solution containing CaCl2 (1.8 mM). Remaining follicle cells were removed if necessary. Cells were incubated at 16° C., and each oocyte injected with […] RNA in […] solution.
Electrophysiology measurements. Transport currents were measured 2-14 days after injection, using a standard two-electrode electrophysiology set-up (Geneclamp 500 amplifier, Digidata 1320/PCLAMP software and ADInstruments hardware and software were used for signal acquisition). Electrodes ([…]) were microfabricated using a Sutter Instrument puller and filled with 3M KCl. The bath was directly grounded (transporter currents were less than 0.3 μA). Bath flow was controlled by an automated perfusion system (ALA Scientific Instruments, solenoid valves).
For transporter pharmacology, oocytes were clamped at −60 to −90 mV, and continuous current measurements acquired using PowerLab Software and an ADInstruments digitizer. Current signals were lowpass filtered at 20 Hz and acquired at 4-8 Hz. All bath and drug-containing solutions were frog ringers solution containing CaCl2. Drugs were applied for 10-30 seconds until the induced current reached a new steady-state level, followed by a control solution until baseline currents returned to levels that preceded drug application. The difference current (baseline subtracted from peak current during drug application) reflected the net movement of charge resulting from electrogenic transport and was directly proportional to tranport rate. Recordings were made from a single oocyte for up to 60 min, enabling 30-40 separate compounds to be tested per oocyte. […]. Using this normalization procedure Vmax (i.e. maximal induced current) for different compounds tested on different oocytes could be compared.

[1] = Secretion in bile following oral administration to bile duct-cannulated rats; format: in vivo, rat; settings: single oral dose of (4) 85.25 mg/kg
Protocol: Sustained release of gabapentin from a prodrug that is subject to enterohepatic recirculation requires that a proportion of the intact prodrug be absorbed after oral administration and subsequently secreted into the bile intact. The potential for enterohepatic recirculation of intact (4) was examined in rats with indwelling bile duct fistulae. […] Bile was collected continuously in aliquots over 24 hours. Plasma and bile samples were frozen at −80° C. until analyzed. Concentrations of (4) or gabapentin in plasma samples were deermined by LC/MS/MS as described in Example 38. Concentrations of intact […] in bile were similarly deermined by LC/MS/MS. Bile (20 μL) was diluted 1:1000 with methanol and injected directly onto the HPLC system. Concentrations of (4) in bile reached a maximum at ˜6 hours post-dosing and were sustained up to 24 hours.

LBAT = biological target: T1, LBAT (Homo sapiens, UniProt Q14973); test: In vitro uptake by CHO cells transfected with LBAT, evaluated by LC-MS/MS; format: cell-based; settings: 0.06 to 1000 μM, 10 min
T1 construct: expressed in transfected cells; host or cells: CHO cells
Protocol: Active transport of (4) by the bile acid transport system was evaluated in vitro by incubation of (4) or glycocholate (control substrate) with untransfected CHO K1 cells or CHO cells transfected with either IBAT or LBAT. Cells (10^5 cells/mL) were incubated in 96 well plates with varying concentrations (0.06 to 1000 μM) of (4) or glycocholate for 10 min. Cells were then washed with Hank's Balanced Salt Solution (HBSS) and lysed and extracted by addition of 100 μL of water followed by sonication. Concentrations of (4) or glycocholate in cell extracts were determined by direct injection onto an API 2000 LC/MS/MS equipped with an Agilent 1100 binary pump and autosampler. Separation was achieved using a Keystone BDS Hypersil 2×50 mm column heated to 45° C. during the analysis. The mobile phases were: 0.1% formic acid in water (A) and 0.1% formic acid in acetonitrile (B). The gradient condition was: 5% B for 1 min, increasing to 90% B in 0.2 min, maintained for 2.8 min and returning to 5% B for 2 min. A TurboIonSpray source was used on the API 2000. The analysis was performed in the positive ion mode and MRM transitions of 466/412 and 562/154 were used in the analysis of glycocholate and (4), respectively. Ten microliters of the cell extracts were injected. Peaks were integrated using Analyst quantitation software. […]

IBAT, sequence (Q12908 whole entry): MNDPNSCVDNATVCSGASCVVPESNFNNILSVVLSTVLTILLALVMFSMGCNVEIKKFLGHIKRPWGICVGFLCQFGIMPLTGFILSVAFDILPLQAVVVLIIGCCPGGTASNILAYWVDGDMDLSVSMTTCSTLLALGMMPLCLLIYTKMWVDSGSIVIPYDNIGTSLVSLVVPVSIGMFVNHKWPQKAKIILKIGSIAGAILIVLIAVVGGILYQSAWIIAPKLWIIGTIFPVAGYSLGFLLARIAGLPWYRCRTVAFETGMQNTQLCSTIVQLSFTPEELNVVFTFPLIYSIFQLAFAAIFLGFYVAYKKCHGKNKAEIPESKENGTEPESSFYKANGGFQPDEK
T1 sequence (Q14973 whole entry): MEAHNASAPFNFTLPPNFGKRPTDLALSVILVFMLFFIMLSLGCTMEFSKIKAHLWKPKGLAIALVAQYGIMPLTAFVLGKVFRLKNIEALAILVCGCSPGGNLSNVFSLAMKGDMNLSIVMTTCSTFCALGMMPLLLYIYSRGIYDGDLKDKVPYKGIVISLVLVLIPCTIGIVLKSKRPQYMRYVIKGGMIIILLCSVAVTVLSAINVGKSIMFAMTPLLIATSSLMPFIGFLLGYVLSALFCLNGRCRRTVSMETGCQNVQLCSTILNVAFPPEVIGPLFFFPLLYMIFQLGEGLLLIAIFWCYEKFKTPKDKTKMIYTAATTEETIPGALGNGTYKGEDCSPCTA

CC(CCC(=O)NCC1(CC(=O)O)CCCCC1)C1CCC2C3C(O)CC4CC(O)CCC4(C)C3CC(O)C12C (stereo not drawn) [Compound (4)]
concentrations of intact (4) in plasma sustained out to (in vivo): 24 h
half-life (in vivo): > 12 h
time of maximum concentration of intact (4) in plasma (in vivo): ~8 h
EC50 (IBAT): 70 µM
% Max. (GDC) (IBAT; relative to glycodeoxycholate): 67%
concentrations of (4) in bile sustained up to ([1]; bile duct-cannulated rats): up to 24 hours
time of maximum concentration of (4) in bile ([1]; bile duct-cannulated rats, post-dosing): ~6 h
gabapentin in plasma of bile duct-cannulated rats [1]: no gabapentin was detected
Active uptake by bile acid transport system (LBAT): Active uptake

— US20050054559A1, “Compounds for sustained release of orally delivered drugs” (priority 2000, published 2005)
